Measurements: US11866416B2, “Streptococcus mutans glucosyl transferase inhibitors for dental caries therapy” (UAB Research Foundation, priority 2018, dated 2024)
Converted amounts (≈) assume the structure as drawn. Like-named read-outs stand apart in the source and are kept apart here.

What was measured:
S. mutans = experiment: microbe, parasite or virus in culture; type: cell-based, Streptococcus mutans; settings: Streptococcus mutans, >300 = no inhibition up to 300 μM, read-out: Growth Inhibition MIC50
Description: Cell viability of S. mutans, S. gordonii, S. sanguinis, Aggregatibacter actinomycetemcomitans and Actinomyces. […] The number of colony-forming units (CFU) per milliliter of each sample treated with selected compounds at different concentrations was enumerated after incubation for 24 h at 37° C. and compared to the values obtained from the DMSO control group. Overnight broth cultures were transferred by 1:50 dilutions into fresh THB medium and were allowed to grow until mid-exponential phase (OD470 nm 0.6) before transfer to 96-well plates containing desired concentration of the compound. After 16 h incubation, bacterial growth was measured at OD470, and normalized to the DMSO control (100%).
Cell viability of S. mutans and commensal S. gordonii and S. sanguinis. Effects of lead small molecules on cell viability were examined. The number of colony-forming units (CFU) per milliliter for each compound at different concentrations was determined after incubation for 24 h at 37° C. and compared to the values obtained from the DMSO control group.
Cell viability of S. mutans and commensal S. gordonii and S. sanguinis. […] DMSO served as a control group and provided a relative comparison for the number of colony-forming units (CFU) per milliliter for each compound at different concentrations was determined after incubation for 24 h at 37° C. The final concentration of DMSO used in the assays was 1%.

S. mutans biofilm = S. mutans biofilm formation and inhibition assay (96-well plates, crystal violet); type: cell-based, Streptococcus mutans; settings: for IC50: Streptococcus mutans, read-out: Biofilm Inhibition IC50
Description: Biofilm assays using 96-well flat-bottom polystyrene microtiter plates were performed to evaluate S. mutans biofilm formation at various conditions as described (Liu et al. (2011) Antimicrobial Agents and Chemotherapy 55, 2679; Zhang et al. (2015) International Journal of Antimicrobial Agents 46, 174), the disclosures of which are incorporated herein by reference in their entirety). Each assay was replicated three times. Compounds that inhibited biofilm formation at minimum concentration (MBIC) were determined by serial dilutions.
S. mutans biofilm formation and inhibition assays. […] Each assay was replicated three times. Minimum biofilm inhibitory concentration (MBIC) of compounds was determined by serial dilutions.
S. mutans biofilm formation and inhibition assays. Biofilm assays using 96-well flat-bottom polystyrene microtiter plates were performed to evaluate S. mutans biofilm formation at various conditions as described. Each assay was replicated […]. Compounds that inhibited 50% biofilm formation were determined by serial dilutions.
S. mutans biofilm formation and inhibition assays. A well-established protocol to study S. mutans biofilm formation in 96-well flat-bottom polystyrene microtiter plates was used, in triplicate (Mattos-Graner, R. O.; Napimoga, M. H.; Fukushima, K.; Duncan, M. J.; Smith, D. J., Comparative analysis of Gtf isozyme production and diversity in isolates of Streptococcus mutans with different biofilm growth phenotypes. Journal of clinical microbiology 2004, 42 (10), 4586-4592). The stock solutions were made up in 100% DMSO, and final concentration of DMSO used in the assays was 1%. Minimum biofilm inhibitory concentration (MBIC) of compounds was determined by serial dilutions.

[1] = Table 1, >500 = no inhibition up to 500 μM
[2] = Table 5, >500 = no inhibition up to 500 μM

Structure (SMILES) | MIC50 (S. mutans; Table 2) [µM] | IC50 (S. mutans biofilm; [1]) [µM] | IC50 (S. mutans biofilm; Table 2) [µM] | also measured
COC(=O)c1cccc(NC(=O)c2cnc3ccccc3c2)c1 [AA] | > 300 | 147 | 147 | –
COC(=O)c1cccc(NC(=O)c2cc3cc([N+](=O)[O-])ccc3[nH]2)c1 [AB] | > 300 | 31.4 | 31.4 | –
COC(=O)c1ccc(NC(=O)c2cc3cc([N+](=O)[O-])ccc3o2)cc1 [AC] | > 300 | 144 | 144 | –
Cc1ccc(S(=O)(=O)Nc2cccc(NC(=O)c3cc4cc([N+](=O)[O-])ccc4s3)c2)cc1 [AD] | > 300 | 63.7 | 63.7 | –
COC(=O)c1cccc(NC(=O)c2cc3cc([N+](=O)[O-])ccc3o2)c1 [AE] | > 300 | 2.7 | 2.7 | –
NC(=O)c1ccccc1OC(=O)c1cc2ccccc2s1 [AF] | – | > 500 | – | –
NC(=O)c1ccc(NC(=O)c2cc3cc([N+](=O)[O-])ccc3o2)cc1 [AG] | – | 239 | – | –
NCc1ccccc1NC(=O)c1ccc2ccccc2c1 [AH] | > 300 | 160 | 160 | –
CC(C)(C)OC(=O)NCc1ccccc1NC(=O)c1cc2ccccc2s1 [AI] | > 300 | 43.4 | 43.4 | –
CC(C)(C)OC(=O)NCc1ccccc1NC(=O)c1cc2cc([N+](=O)[O-])ccc2s1 [AJ] | > 300 | 51.5 | 51.5 | –
CC(C)(C)OC(=O)NCc1ccccc1NC(=O)c1cnc2ccccc2c1 [AK] | > 300 | 52.8 | 52.8 | –
NCc1ccccc1NC(=O)c1cnc2ccccc2c1 [AL] | > 300 | 136 | 136 | –
NCc1ccccc1NC(=O)c1cc2cc([N+](=O)[O-])ccc2s1 [AM] | > 300 | 106 | 106 | –
NCc1ccccc1NC(=O)c1cccc2ccccc12 [AN] | > 300 | 93.3 | 93.3 | –
CC(C)(C)OC(=O)NCc1ccccc1NC(=O)c1ccc2ccccc2c1 [AO] | > 300 | 56.8 | 56.8 | –
COc1cc(OC)c(-c2oc3ccccc3c(=O)c2O)cc1OC [AP-I-240] | – | – | – | MIC50 (S. mutans; Table 3, NI = no inhibition up to 400 μM): 15.3 ± 3 µM (≈ 5.02 µg/mL); IC50 (S. mutans biofilm; Table 3): 10.1 ± 1 µM
CC(C)(C)OC(=O)NCc1ccccc1NC(=O)c1ccc2ccccc2n1 [AP] | > 300 | 67.5 | 67.5 | –
NC(=O)c1ccccc1OC(=O)c1ccc(-c2ccccc2)cc1 [AQ] | > 300 | 55.6 | 55.6 | –
NC(=O)c1cccc(NC(=O)c2ccc(-c3ccccc3)cc2)c1 [AR] | > 300 | 79.9 | 79.9 | –
NC(=O)c1ccccc1NC(=O)c1ccc2ccccc2c1 [AS] | – | 84.1 | – | –
NC(=O)c1cccc(NC(=O)c2ccc3ccccc3c2)c1 [AT] | > 300 | 67.7 | 67.7 | –
NC(=O)c1ccccc1NC(=O)c1ccc(-c2ccccc2)cc1 [AU] | – | > 500 | – | –
NC(=O)c1cccc(NC(=O)c2ccc3ccccc3n2)c1 [AV] | > 300 | 111 | 111 | –
NC(=O)c1ccc(NC(=O)c2ccc3ccccc3c2)cc1 [AW] | – | > 500 | – | –
NC(=O)c1ccccc1OC(=O)c1ccc2ccccc2c1 [AX] | > 300 | 98.3 | 98.3 | –
NC(=O)c1ccccc1NC(=O)c1ccc2ccccc2n1 [AY] | – | > 500 | – | –
COC(=O)c1ccccc1NC(=O)c1ccc2ccccc2c1 [AZ] | > 300 | 121 | 121 | –

Structure (SMILES) | MIC50 (S. mutans; Table 2) [µM] | IC50 (S. mutans biofilm; [1]) [µM] | IC50 (S. mutans biofilm; Table 2) [µM] | also measured
NC(=O)c1ccccc1OC(=O)c1cc2cc([N+](=O)[O-])ccc2o1 [BA] | – | 279 | – | –
COC(=O)c1ccccc1NC(=O)c1cc2cc([N+](=O)[O-])ccc2o1 [BB] | > 300 | 71.4 | 71.4 | –
NC(=O)c1ccc(NC(=O)c2ccc3ccccc3n2)cc1 [BC] | > 300 | 54.4 | 54.4 | –
COC(=O)c1ccccc1NC(=O)c1ccc2ccccc2n1 [BD] | > 300 | 89.5 | 89.5 | –
COC(=O)c1ccccc1NC(=O)c1cc2ccccc2s1 [BE] | > 300 | 74.9 | 74.9 | –
COC(=O)c1ccccc1NC(=O)c1cnc2ccccc2c1 [BF] | – | 446 | – | –
O=C(Nc1ccccc1I)c1cnc2ccccc2c1 [BG] | – | > 500 | – | –
CCc1ccccc1NC(=O)c1cnc2ccccc2c1 [BH] | – | 204 | – | –
O=C(Nc1ccccc1Br)c1cc2cc([N+](=O)[O-])ccc2s1 [BI] | > 300 | 122 | 122 | –
CC(C)c1ccccc1NC(=O)c1cc2cc([N+](=O)[O-])ccc2s1 [BJ] | – | 262 | – | –
CC(C)c1ccccc1NC(=O)c1cnc2ccccc2c1 [BK] | – | > 500 | – | –
CCc1ccccc1NC(=O)c1cc2cc([N+](=O)[O-])ccc2s1 [BL] | > 300 | 158 | 158 | –
NC(=O)c1cccc(NC(=O)c2ccc3ccccc3c2O)c1 [BP] | – | 270 | – | –
NC(=O)c1ccccc1NC(=O)c1cccc2ccccc12 [BQ] | – | 446 | – | –
Cc1ccc(S(=O)(=O)Nc2ccccc2N)cc1 [BU] | – | > 500 | – | –
NC(=O)c1ccc(NC(=O)c2cc3cc([N+](=O)[O-])ccc3s2)cc1 [BV] | – | 395 | – | –
COc1ccc2[nH]c(C(=O)Nc3ccc(C(N)=O)cc3)cc2c1 [BY] | – | > 500 | – | –
COC(=O)c1ccccc1NC(=O)c1cc2cc([N+](=O)[O-])ccc2s1 [Compound 3C] | – | > 500 | – | –
O=C(Nc1ccccc1)c1cc2cc([N+](=O)[O-])ccc2s1 [Compound 3D] | – | > 500 | – | IC50 (S. mutans biofilm; [2]): > 500 µM
NC(=O)c1ccccc1NC(=O)c1cc2ccccc2[nH]1 [Compound 3E] | – | > 500 | – | –
NC(=O)c1ccccc1NC(=O)c1cc2cc([N+](=O)[O-])ccc2[nH]1 [Compound 3H] | – | > 500 | – | –
O=C(Nc1ccccc1)c1cnc2ccccc2c1 [Compound 3L] | – | > 500 | – | IC50 (S. mutans biofilm; [2]): > 500 µM
NC(=O)c1ccc(NC(=O)c2cnc3ccccc3c2)cc1 [Compound 3T] | – | > 500 | – | –
COc1ccc(/C=C/C(=O)c2ccc3c(c2)OCO3)cc1O [Compound 14] | – | – | – | effect on S. mutans biofilm in the preliminary screen (S. mutans biofilm; chalcones, 200 μM): no anti-biofilm effects
O=c1c(O)c(-c2cc(O)c(O)c(O)c2)oc2cc(O)ccc12 [PAY] | – | – | – | IC50 (S. mutans biofilm; Table 3): 74.5 ± 9.8 µM
O=c1c(O)c(-c2ccc(O)cc2)oc2ccccc12 [SN-II-78] | – | – | – | IC50 (S. mutans biofilm; Table 3): 200 ± 10 µM
